Results as given in patent US20230286970A1, “NOVEL OXADIAZOLE-BASED SELECTIVE HDAC6 INHIBITORS” (ITALFARMACO S.P.A., priority 2020, published 2023).

Experiments:
[1] = molecular target: recombinant human HDAC6 (Homo sapiens (Human), UniProt Q9UBN7); assay: Enzymatic screening, HDAC6 inhibition (fluorogenic FdL_G substrate); type: biochemical
In short: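 Enzyme was preincubated with compound (8 doses, triplicate, 1% DMSO) in 25 mM Tris-HCl pH 8, 130 mM NaCl, 0.05% Tween-20, 10% glycerol, with BSA. A FLUOR DE LYS-Green substrate was then added, and fluorescence was read after developer plus 2 μM TSA.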

[2] = molecular target: recombinant human HDAC1 (Homo sapiens (Human), UniProt Q13547); assay: Enzymatic screening, HDAC1 inhibition (fluorogenic FdL_G substrate); type: biochemical
In short: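 Recombinant human HDAC1 inhibition was measured fluorometrically using the FLUOR DE LYS-Green (FdL_G) substrate. Compounds at 8 doses (1% DMSO final) in Tris-HCl pH 8 buffer with NaCl, Tween-20 and glycerol were preincubated in triplicate with enzyme and 1 mg/mL BSA, then given substrate. Developer I plus 2 μM TSA was added, and fluorescence read after 25 minutes in the dark.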

Chain of recombinant human HDAC1 (Q13547 whole entry): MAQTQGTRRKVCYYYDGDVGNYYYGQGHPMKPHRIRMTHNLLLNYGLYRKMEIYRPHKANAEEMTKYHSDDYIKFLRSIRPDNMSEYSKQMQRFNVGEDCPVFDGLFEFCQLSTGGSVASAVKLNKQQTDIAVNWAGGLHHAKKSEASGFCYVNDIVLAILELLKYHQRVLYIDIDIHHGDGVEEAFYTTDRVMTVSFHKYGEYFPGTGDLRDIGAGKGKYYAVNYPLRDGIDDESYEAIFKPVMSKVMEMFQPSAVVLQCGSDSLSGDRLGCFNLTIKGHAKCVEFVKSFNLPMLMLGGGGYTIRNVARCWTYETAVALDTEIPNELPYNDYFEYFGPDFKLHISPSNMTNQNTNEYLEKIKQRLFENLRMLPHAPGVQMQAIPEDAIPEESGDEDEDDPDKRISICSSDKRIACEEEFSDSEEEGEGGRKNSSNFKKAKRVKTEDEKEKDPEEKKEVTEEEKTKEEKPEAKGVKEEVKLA
Chain of recombinant human HDAC6 (Q9UBN7 whole entry): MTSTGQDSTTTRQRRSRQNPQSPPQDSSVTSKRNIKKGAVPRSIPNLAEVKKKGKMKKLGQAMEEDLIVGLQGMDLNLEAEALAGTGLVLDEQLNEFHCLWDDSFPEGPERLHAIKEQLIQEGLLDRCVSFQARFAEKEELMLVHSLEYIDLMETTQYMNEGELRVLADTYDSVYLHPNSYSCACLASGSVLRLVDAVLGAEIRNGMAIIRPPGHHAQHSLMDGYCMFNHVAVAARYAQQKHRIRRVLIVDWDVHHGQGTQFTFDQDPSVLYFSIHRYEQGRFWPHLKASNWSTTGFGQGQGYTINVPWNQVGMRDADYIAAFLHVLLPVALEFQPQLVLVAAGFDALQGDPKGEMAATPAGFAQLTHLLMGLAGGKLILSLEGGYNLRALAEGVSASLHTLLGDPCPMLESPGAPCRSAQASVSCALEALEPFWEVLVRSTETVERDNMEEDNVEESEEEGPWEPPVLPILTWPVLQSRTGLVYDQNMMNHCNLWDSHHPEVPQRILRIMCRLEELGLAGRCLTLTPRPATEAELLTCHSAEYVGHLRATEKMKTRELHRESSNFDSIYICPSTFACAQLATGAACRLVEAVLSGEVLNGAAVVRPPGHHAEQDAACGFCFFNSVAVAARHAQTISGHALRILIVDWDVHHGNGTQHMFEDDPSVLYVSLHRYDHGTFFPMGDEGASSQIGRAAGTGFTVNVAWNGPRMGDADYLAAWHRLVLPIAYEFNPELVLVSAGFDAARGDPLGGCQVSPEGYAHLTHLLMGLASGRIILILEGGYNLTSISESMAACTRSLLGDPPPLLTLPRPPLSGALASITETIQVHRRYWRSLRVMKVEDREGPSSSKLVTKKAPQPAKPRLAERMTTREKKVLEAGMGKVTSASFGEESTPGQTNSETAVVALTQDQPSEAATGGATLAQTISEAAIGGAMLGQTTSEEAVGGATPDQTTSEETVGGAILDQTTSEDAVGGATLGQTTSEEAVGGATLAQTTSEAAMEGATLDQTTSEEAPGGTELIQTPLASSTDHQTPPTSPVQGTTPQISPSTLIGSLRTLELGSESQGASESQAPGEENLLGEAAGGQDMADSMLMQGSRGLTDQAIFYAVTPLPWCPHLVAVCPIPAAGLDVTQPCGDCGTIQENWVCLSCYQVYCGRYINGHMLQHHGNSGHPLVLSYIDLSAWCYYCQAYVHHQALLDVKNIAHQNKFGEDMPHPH

Row | SMILES | IC50 [1] | IC50 [2]
1 | COc1ccccc1-c1cn(Cc2ccc(-c3nnc(C(F)F)o3)cc2)nn1 [compound 233, 2-(difluoromethyl)-5-(4-((4-(2-methoxyphenyl)-1H-1,2,3-triazol-1-yl)methyl)phenyl)-1,3,4-oxadiazole] | 200 nM | > 200000 nM
2 | CN1CCc2ccc(-c3nnn(Cc4ccc(-c5nnc(C(F)F)o5)cc4)n3)cc2C1=O [compound 173, 7-(2-(4-(5-(difluoromethyl)-1,3,4-oxadiazol-2-yl)benzyl)-2H-tetrazol-5-yl)-2-methyl-3,4-dihydroisoquinolin-1 (2H)-one] | 86 nM | > 200000 nM
3 | Nc1cccc(-c2cn(Cc3c(F)cc(-c4nnc(C(F)F)o4)cc3F)nn2)c1 [compound 297, 3-(1-(4-(5-(difluoromethyl)-1,3,4-oxadiazol-2-yl)-2,6-difluorobenzyl)-1H-1,2,3-triazol-4-yl)aniline] | 37 nM | 65000 nM
4 | FC(F)c1nnc(-c2ccc(Cn3nnc(-c4ccc5ccncc5c4)n3)cc2)o1 [compound 127, 2-(difluoromethyl)-5-(4-((5-(isoquinolin-7-yl)-2H-tetrazol-2-yl)methyl)phenyl)-1,3,4-oxadiazole] | 49 nM | > 200000 nM
5 | Nc1ccc(-c2cn(C(Cc3ccccc3)c3ccc(-c4nnc(C(F)F)o4)cc3)nn2)cn1 (stereo not shown) [compound 221, 5-(1-(1-(4-(5-(difluoromethyl)-1,3,4-oxadiazol-2-yl)phenyl)-2-phenylethyl)-1H-1,2,3-triazol-4-yl)pyridin-2-amine] | 157 nM | > 200000 nM
6 | C[C@@H](c1ccc(-c2nnc(C(F)F)o2)cn1)n1cc(-c2ccc(N)nc2)nn1 [Compd. 171, (S)-5-(1-(1-(5-(5-(difluoromethyl)-1,3,4-oxadiazol-2-yl)pyridin-2-yl)ethyl)-1H-1,2,3-triazol-4-yl)pyridin-2-amine] | 82 nM | > 200000 nM
7 | Nc1nc2ccc(-n3cc(Cc4ccc(-c5nnc(C(F)F)o5)cc4)nn3)cc2s1 [compd. 377, 6-[4-[[4-[5-(difluoromethyl)-1,3,4-oxadiazol-2-yl]phenyl]methyl]triazol-1-yl]-1,3-benzothiazol-2-amine] | 370 nM | > 1e+06 nM
8 | CC(C)(C)OC(=O)N1CCC2(C1)C(=O)Nc1ccc(-c3cn(Cc4ccc(-c5nnc(C(F)F)o5)cn4)nn3)cc12 (single isomer, unassigned) [compound 266, tert-butyl 5-[1-({5-[5-(difluoromethyl)-1,3,4-oxadiazol-2-yl]pyridin-2-yl}methyl)-1H-1,2,3-triazol-4-yl]-2-oxo-1,2-dihydrospiro[indole-3,3′-pyrrolidine]-1′-carboxylate] | 35 nM | > 200000 nM
9 | Nc1ccc(-c2cn(Cc3c(F)cc(-c4nnc(C(F)F)o4)cc3F)nn2)cc1 [compound 296, 4-(1-(4-(5-(difluoromethyl)-1,3,4-oxadiazol-2-yl)-2,6-difluorobenzyl)-1H-1,2,3-triazol-4-yl)aniline] | 34 nM | > 200000 nM
10 | Cn1c(N)nc2cc(-c3cnn(Cc4ccc(-c5nnc(C(F)F)o5)cn4)c3)ccc21 [compound 320, 5-[1-[[5-[5-(difluoromethyl)-1,3,4-oxadiazol-2-yl]pyridin-2-yl]methyl]pyrazol-4-yl]-1-methylbenzimidazol-2-amine] | 28 nM | > 1e+06 nM
11 | CN(Cc1ccc(-c2nc(Cc3c(F)cc(-c4nnc(C(F)F)o4)cc3F)no2)cc1)C(=O)C(F)F [compound 206, N-(4-(3-(4-(5-(difluoromethyl)-1,3,4-oxadiazol-2-yl)-2,6-difluorobenzyl)-1,2,4-oxadiazol-5-yl)benzyl)-2,2-difluoro-N-methylacetamide] | 127 nM | > 200000 nM
12 | FC(F)c1nnc(-c2ccc(Cn3cc(-c4cnc5cccnn45)nn3)cc2)o1 [compound 280, 2-(difluoromethyl)-5-(4-((4-(imidazo[1,2-b]pyridazin-3-yl)-1H-1,2,3-triazol-1-yl)methyl)phenyl)-1,3,4-oxadiazole] | 89 nM | > 200000 nM
13 | Cc1nc(F)ccc1-c1cn(Cc2ccc(-c3nnc(C(F)F)o3)cc2)nn1 [compound 241, 2-(difluoromethyl)-5-(4-((4-(6-fluoro-2-methylpyridin-3-yl)-1H-1,2,3-triazol-1-yl)methyl)phenyl)-1,3,4-oxadiazole] | 216 nM | > 200000 nM
14 | CN1CCN(C(=O)Nc2cccc(-c3cn(Cc4ccc(-c5nnc(C(F)F)o5)cc4)nn3)c2)CC1 [compound 146, N-(3-(1-(4-(5-(difluoromethyl)-1,3,4-oxadiazol-2-yl)benzyl)-1H-1,2,3-triazol-4-yl)phenyl)-4-methylpiperazine-1-carboxamide] | 62 nM | > 200000 nM

More lines, in order of falling IC50 [1], values ahead:

Row | IC50 [1] | IC50 [2] | SMILES
15 | 348 nM | 1e+06 nM | CCNc1ccc2cc(-c3nnn(Cc4ccc(-c5nnc(C(F)F)o5)c(F)c4)n3)ccc2n1 [compound 410, 6-(2-(4-(5-(difluoromethyl)-1,3,4-oxadiazol-2-yl)-3-fluorobenzyl)-2H-tetrazol-5-yl)-N-ethylquinolin-2-amine]
16 | 308 nM | > 1e+06 nM | Nc1ccc(-c2cn([C@H](CN3CCCC3)c3ccc(-c4nnc(C(F)F)o4)cc3)nn2)cn1 [compound 313, 5-[1-[(1S)-1-[4-[5-(difluoromethyl)-1,3,4-oxadiazol-2-yl]phenyl]-2-pyrrolidin-1-ylethyl]triazol-4-yl]pyridin-2-amine]
17 | 252 nM | > 200000 nM | Nc1ccc(-c2cn(C(CC3CCC3)c3ccc(-c4nnc(C(F)F)o4)cc3)nn2)cn1 (stereo not shown) [Compd. 242, 5-(1-(2-cyclobutyl-1-(4-(5-(difluoromethyl)-1,3,4-oxadiazol-2-yl)phenyl)ethyl)-1H-1,2,3-triazol-4-yl)pyridin-2-amine]
18 | 156 nM | > 200000 nM | CC(C)(c1ccncc1)c1nnn(Cc2ccc(-c3nnc(C(F)F)o3)cc2)n1 [compound 219, 2-(difluoromethyl)-5-(4-((5-(2-(pyridin-4-yl)propan-2-yl)-2H-tetrazol-2-yl)methyl)phenyl)-1,3,4-oxadiazole]
19 | 110 nM | > 200000 nM | FC(F)c1nnc(-c2cnc(Cn3nnnc3-c3cccs3)nc2)o1 [compound 299, 2-(difluoromethyl)-5-(2-((5-(thiophen-2-yl)-1H-tetrazol-1-yl)methyl)pyrimidin-5-yl)-1,3,4-oxadiazole]
20 | 109 nM | > 200000 nM | Nc1ccc(-c2cn(Cc3ccc(-c4nnc(C(F)F)o4)nn3)nn2)cn1 [compound 198, 5-(1-((6-(5-(difluoromethyl)-1,3,4-oxadiazol-2-yl)pyridazin-3-yl)methyl)-1H-1,2,3-triazol-4-yl)pyridin-2-amine]
21 | 102 nM | 1e+06 nM | CNc1ncc2cc(-c3cn(Cc4c(F)cc(-c5nnc(C(F)F)o5)cc4F)nn3)ccc2n1 [compound 392, 6-[1-({4-[5-(difluoromethyl)-1,3,4-oxadiazol-2-yl]-2,6-difluorophenyl}methyl)-1H-1,2,3-triazol-4-yl]-N-methylquinazolin-2-amine]
22 | 101 nM | > 1e+06 nM | Cn1c(N)nc2cc(-c3nnn(Cc4ccc(-c5nnc(C(F)F)o5)cc4Cl)n3)ccc21 [compound 374, 5-[2-[[2-chloro-4-[5-(difluoromethyl)-1,3,4-oxadiazol-2-yl]phenyl]methyl]tetrazol-5-yl]-1-methylbenzimidazol-2-amine]
23 | 65 nM | > 200000 nM | Nc1nc2cc(-c3nnn(Cc4ccc(-c5nnc(C(F)F)o5)cc4)n3)ccc2o1 [compound 152, 5-(2-(4-(5-(difluoromethyl)-1,3,4-oxadiazol-2-yl)benzyl)-2H-tetrazol-5-yl)benzo[d]oxazol-2-amine]
24 | 64 nM | > 1e+06 nM | Nc1ccc(-c2noc(Cc3ccc(-c4nnc(C(F)F)o4)cc3F)n2)cc1 [compd. 419, 4-(5-(4-(5-(difluoromethyl)-1,3,4-oxadiazol-2-yl)-2-fluorobenzyl)-1,2,4-oxadiazol-3-yl)aniline]
25 | 53 nM | > 200000 nM | Nc1ccc(-c2noc(Cc3ccc(-c4nnc(C(F)F)o4)cc3)n2)cn1 [compound 135, 5-(5-(4-(5-(difluoromethyl)-1,3,4-oxadiazol-2-yl)benzyl)-1,2,4-oxadiazol-3-yl)pyridin-2-amine]
26 | 39 nM | > 200000 nM | NCc1ccc(-c2nc(Cc3c(F)cc(-c4nnc(C(F)F)o4)cc3F)no2)cc1 [compound 100, (4-(3-(4-(5-(difluoromethyl)-1,3,4-oxadiazol-2-yl)-2,6-difluorobenzyl)-1,2,4-oxadiazol-5-yl)phenyl)methanamine]
27 | 23 nM | > 1e+06 nM | Cn1c(N)nc2cc(-c3nnn(Cc4ncc(-c5nnc(C(F)F)o5)cc4F)n3)ccc21 [compound 370, 5-[2-[[5-[5-(difluoromethyl)-1,3,4-oxadiazol-2-yl]-3-fluoropyridin-2-yl]methyl]tetrazol-5-yl]-1-methylbenzimidazol-2-amine]
28 | 17 nM | > 1e+06 nM | FC(F)c1nnc(-c2ccc(Cc3nc(-c4ccc(NC5=NCCN5)cc4)no3)cc2)o1 [compound 379, N-[4-[5-[[4-[5-(difluoromethyl)-1,3,4-oxadiazol-2-yl]phenyl]methyl]-1,2,4-oxadiazol-3-yl]phenyl]-4,5-dihydro-1H-imidazol-2-amine]
29 | 11 nM | > 1e+06 nM | Fc1c(Cn2cnc(-c3ccc(NC4=NCCN4)cc3)c2)ccc(-c2nnc(C(F)F)o2)c1F [compound 359, N-[4-[1-[[4-[5-(difluoromethyl)-1,3,4-oxadiazol-2-yl]-2,3-difluorophenyl]methyl]imidazol-4-yl]phenyl]-4,5-dihydro-1H-imidazol-2-amine]
